Measured values from patent US6596755B2 (Dabur Research Foundation, priority 2001, dated 2003).

Columns and labels:
U87MG Glioblastoma = test: three day MTT cytotoxicity assay, U87MG; format: cell-based, human; settings: Standard (DMSO control), 72 hours
Experimental: (§1) Briefly, a three day MTT cytotoxicity assay was performed, which is based on the principle of uptake of MTT (3-(4,5-dimethylthiazol-2-yl)-2,5-diphenyl tetrazolium bromide), a tetrazolium salt, by the metabolically active cells where it is metabolized by active mitochondria into a blue colored formazan product that is read spectrophoto-metrically. MTT was dissolved in phosphate buffered saline with a pH of 7.4 to obtain an MTT concentration of 5 mg/ml; the resulting mixture was filtered through a 0.22 micron filter to sterilize and remove a small amount of insoluble residue. For each type of tumor cell, 20,000 to 50,000 cells were seeded in a 96-well culture plate and incubated with the formulation or standard in a CO2 incubator for […]. […] The assay was terminated after 72 hours by adding 100 ug (20 ul) of MTT to each well, then incubating for additional one hour, and finally adding 50 ul of 10% SDS-0.01N HCl to each well to lyse the cells and dissolve formazan. After incubating for one hour, the plate was read spectrophoto-metrically at 540 nm and the percentage cytotoxicity calculated.

KB Oral = test: three day MTT cytotoxicity assay, KB; format: cell-based, human; settings: Standard (DMSO control), 72 hours
Experimental: as §1

PTC Colon = test: three day MTT cytotoxicity assay, PTC; format: cell-based, human; settings: Standard (DMSO control), 72 hours
Experimental: as §1

DU145 Prostate = test: three day MTT cytotoxicity assay, DU145; format: cell-based, human; settings: Standard (DMSO control), 72 hours
Experimental: as §1

Miapaca2 Pancreas = test: three day MTT cytotoxicity assay, Miapaca2; format: cell-based, human; settings: Standard (DMSO control), 72 hours
Experimental: as §1

L132 Lung = test: three day MTT cytotoxicity assay, L132; format: cell-based, human; settings: Standard (DMSO control), 72 hours
Experimental: as §1

Molt 4 Leukemia = test: three day MTT cytotoxicity assay, Molt 4; format: cell-based, human; settings: Standard (DMSO control), 72 hours
Experimental: as §1

sarcoma 180 cells = settings: injected into mice along with sarcoma 180 cells; cited from earlier work
sarcoma tumor = settings: in vivo; cited from earlier work

COC(=O)C1CCC(=O)N1C(O)C(C)=O (centres unmarked) [MGC1]
ED50 of cytotoxicity (U87MG Glioblastoma): 2250 ± 500 µM | ED50 of cytotoxicity (KB Oral): 1700 ± 500 µM | ED50 of cytotoxicity (PTC Colon): 3700 ± 1400 µM | ED50 of cytotoxicity (DU145 Prostate): 1700 ± 600 µM | ED50 of cytotoxicity (Miapaca2 Pancreas): 4200 ± 1300 µM | ED50 of cytotoxicity (L132 Lung): >5000 µM | ED50 of cytotoxicity (Molt 4 Leukemia): 1500 ± 400 µM

CCOC(=O)C1CCC(=O)N1C(O)C(C)=O (centres unmarked) [MGC4]
ED50 of cytotoxicity (U87MG Glioblastoma): 2400 ± 500 µM | ED50 of cytotoxicity (KB Oral): 1550 ± 300 µM | ED50 of cytotoxicity (PTC Colon): 3800 ± 1100 µM | ED50 of cytotoxicity (DU145 Prostate): 1800 ± 300 µM | ED50 of cytotoxicity (Miapaca2 Pancreas): 4200 ± 1100 µM | ED50 of cytotoxicity (L132 Lung): >5000 µM | ED50 of cytotoxicity (Molt 4 Leukemia): 1500 ± 200 µM

CC(=O)OC(C(C)=O)N1C(=O)CCC1C(=O)OCc1ccccc1 (centres unmarked) [MGC7]
ED50 of cytotoxicity (U87MG Glioblastoma): 1840 ± 600 µM | ED50 of cytotoxicity (KB Oral): 1850 ± 600 µM | ED50 of cytotoxicity (PTC Colon): 2400 ± 500 µM | ED50 of cytotoxicity (DU145 Prostate): 850 ± 300 µM | ED50 of cytotoxicity (Miapaca2 Pancreas): 2400 ± 1000 µM | ED50 of cytotoxicity (L132 Lung): >5000 µM | ED50 of cytotoxicity (Molt 4 Leukemia): 1500 ± 200 µM

CC(=O)C=O [Methylglyoxal, 2-oxopropanal]
tumor development (sarcoma 180 cells): no tumor developed | sarcoma tumor growth (sarcoma tumor): significantly inhibited
